# From paper PMC11965660, “Isobavachalcone ameliorates Alzheimer disease pathology by autophagy-mediated clearance of amyloid beta and inhibition of NLRP3 inflammasome in primary astrocytes and 5x-FAD mice” (Frontiers in Pharmacology, 2025)
# Like-named read-outs stand apart in the source and are kept apart here.
# Key:
# [1] = system: 5x-FAD mice; assay: Radial arm maze test; type: in vivo; details: for Latency to first entry to baited arm: 5x-FAD mice
# Source text: (§1) Hemizygous 5x-FAD transgenic mice (B6.Cg-Tg(APPSwFlLon, PSEN1*M146L*L286V) 6799Vas/Mmjax; MMRRC Strain: 034848-JAX) on congenic C57BL/6J genetic background were used for experiments. The 5x-FAD mice were genotyped using APP-specific qPCR probes to detect the transgene as per the protocol of Jackson Laboratory. Six months old 5x-FAD mice were randomly divided into three groups (n = 5), based on their body weights, with three males and two females in each group. We used mixed-cohort of males and females for our study to exclude any gender biased effect of IBC. Also, AD symptoms are more pronounced in females than in males ([Aggarwal and Mielke, 2023]), making it possible that males and females respond differently to the drug and treatment. Considering this, it is important to show effect of IBC on both sexes. At this age, Aβ deposition and neuroinflammation has already progressed in these mice. We have used IBC as a curative drug rather than a preventive drug. Prior to the initiation of the study, all the animals were acclimatized for 1 week under standard laboratory conditions; animals were drug naive with no prior procedures performed. All testing were performed from 1 to 4 p.m. IBC was orally (OD) given to two groups at different doses, 25 mg/kg (1% DMSO, 2% Tween 80, 19% PEG200, and 78% distilled water) and 50 mg/kg (1% DMSO, 5% Tween 80, 19% PEG200% and 75% distilled water) using oral gavage. 5x-FAD control mice were administered with vehicle (1% DMSO, 5% Tween 80, 19% PEG200% and 75% distilled water). For behavioral and Immunohistochemistry assays, experimenters were blinded to animal identity while carrying out the procedures.
# To check the effect of IBC on the behavior of 5x-FAD mice, open field test (OFT), rotarod (Make; Ugo Basile, rota-rod for mice 7650) and radial arm maze (Make; Ugo Basile) tests were performed. All behavioral assays and testing were performed by an experimenter blinded to the treatment groups. To check the effect of IBC on motor coordination and balancing rotarod test was performed. After acclimatizing mice with rotarod for 5 days, their latency to fall was calculated on the day of analysis. The given final values are the mean of three independent attempts of each mouse. OFT was performed to assess exploratory and locomotor activity in a white box (45 × 60 cm). Distance traveled, speed, time spent in corner and center zones and mobile episodes were recorded through an automated video tracking system using AnyMaze software. To check the effect of IBC on the spatial memory of mice, the eight-armed radial arm maze test was done. The mice were acclimatized to the maze for 5 days before the experiment. Each mouse was trained to navigate the maze for five consecutive days. The mouse was placed on the end of one arm (entry arm). For spatial memory assessment, a food reward (100 mg of butter cookies) was placed in the selected arm, which was considered as […]. The movement of mice was tracked with the help of automated AnyMaze software connected with a tracking camera and various memory retention parameters were assessed.
# [2] = system: NLRP3 inflammasome; assay: NLRP3 inflammasome activation in primary astrocytes, IL-1β and IL-18 release by ELISA; type: cell-based, C57BL/6J mice; details: for IC50: Mus musculus, Astrocyte, primary astrocytes, microglial conditional media, LPS 1 μg/ml 4 h, IBC 1 h, ATP 5 mM 30 min, ELISA
# Procedure: Primary astrocytes were first treated with microglia conditional media to induce astrogliosis ([Liddelow et al., 2017]). For this, the microglia (N9) cell line, provided by Dr. Anirban Basu (National Brain Research Centre, Gurgaon, India) was cultured in RPMI-1640. N9 cells (Passage 28-35) were seeded in 24 well plate at density 0.05 × 10^6 per well. The cells were treated with 1 μg/ml LPS, and supernatant was collected after 24 h. Seeded astrocytes were then treated with the LPS stimulated N9 cells supernatant for 24 h. Thereafter, the treatment for NLRP3 inflammasome activation was given, including priming with fresh 1 μg/ml LPS for 4 h, followed by washing and IBC or MCC950 (100 nM) treatment for 1 h in incomplete media (media without fetal bovine serum). ATP at 5 mM concentration was used as secondary signal for 30 min.
# The experiment was terminated by collecting the cell supernatant.
# After the termination of experiments, the supernatant was collected and analyzed for levels of cytokines. For measuring IL-1β and IL-18, supernatant collected after NLRP3 inflammasome activation as mentioned above, was subjected to ELISA. For detection of IL-1β in mice cortex, mice cortices were isolated and homogenized in RIPA buffer to measure IL-1β in homogenates. The manufacturer’s protocol was followed for measuring the cytokines. The levels of measured cytokines were normalized with the total protein content of the cells. For total protein content of cell pellet lysed with lysis buffer (0.2 N NaCl and 1% Triton-X 100) was measured.
# IC50 of Isobavachalcone for IL-1β and IL-18 was calculated by using GraphPad Prism 8 software using non-linear regression analysis model. Log (inhibitor) vs. response curve was plotted.
# [3] = system: GFAP; assay: Immunohistochemistry of GFAP in hippocampus; type: in vivo, 5x-FAD mice; details: 25 and 50 mg/kg, vs 5x-FAD control
# Source text: as §1, with “IBC was orally (OD) given to two groups at different doses, 25 mg/kg (1% DMSO, 2% Tween 80, 19% PEG200, and 78% distilled water) and 50 mg/kg (1% DMSO, 5% Tween 80, 19% PEG200% and 75% distilled water) using oral gavage. 5x-FAD control mice were administered with vehicle (1% DMSO, 5% Tween 80, 19% PEG200% and 75% distilled water). For behavioral and Immunohistochemistry assays, experimenters were blinded to animal identity while carrying out the procedures.” left out
# Mice’s hippocampus tissue was fixed in 10% formalin. […] Images were taken in a CQ1 high throughput imaging system and analyzed using cell pathfinder software.
# [4] = 25 and 50 mg/kg oral, vs 5x-FAD control
smiles,measurement,setting,value
"CC(C)=CCc1c(O)ccc(C(=O)/C=C/c2ccc(O)cc2)c1O [IBC, isobavachalcone]",Latency to first entry to baited arm,[1]; 25 mg/kg oral,16.58 s
same,Latency to first entry to baited arm,[1]; 50 mg/kg oral,14.36 s
same,Baited arm time,[1]; [4],significantly longer time
same,Distance traveled to find the baited arm,[1]; [4],significantly less distance
same,Entries to non-baited arm,[1]; [4],smaller number of entries
same,IC50,[2]; read-out: IC50 for IL-1β release,2950 nM
same,IC50,[2]; read-out: IC50 for IL-18 release,2750 nM
same,inhibitory effect on release of IL-1β when autophagy is inhibited,"[2]; pre-treatment with 20 nM bafilomycin A1 for 1 h, ELISA and western blotting",completely reversed
same,GFAP expression (IHC),[3],significantly reduced
